SMILES strings stand for the structures. “Also recorded” adds a separate entry of the source. Read-outs that look alike come from different tables or passages of the source. Marks after values point to notes of the source that are not given here. Where only a bound is given, the exact number is not on record here.

For assay [1], the system named is P. falciparum NF54 strain. The experiment in a line: P. falciparum NF54 growth assay, 3H-hypoxanthine incorporation (hit validation). Type of assay: cell-based, Plasmodium falciparum. Particulars: for EC50: Plasmodium falciparum; for Comment (activity in words on retest): hit validation, NF54 confirmatory assay. The procedure:
Synthesized compounds were tested in an alternative assay, in which ^3H-hypoxanthine incorporation was measured in the chloroquine-sensitive strain NF54 (Values were measured in duplicate, 12 points/EC50).
Cultivation of Plasmodium falciparum: Plasmodium falciparum strain NF54 was obtained from the Research and Reference Reagent Resource Center (MR4) (Manassas, VA, USA). The two strains were maintained in vitro by a modification of the method of Trager and Jensen. Cultures were maintained in A positive (A^+) human erythrocytes suspended at 5% hematocrit in complete medium. […] Parasite growth and morphology were observed daily using thin smears at 100X (oil immersion) magnification following staining with Giemsa stain.
Plasmodium falciparum growth assay: The protocol assesses the compound efficacy against the growth of P. falciparum in vitro.
All cultures used in the study are albumax II adopted. […]
Following the incubation period, the plates were harvested with a FilterMate cell harvester (Perkin Elmer) onto unifilter-96 GF/B plates, washed with distilled water to remove excess radiochemical and plates were kept for drying 37°C overnight or 60°C for 1 hr. Fifty µL of Microscint scintillation cocktail (Microscint-High Efficiency LSC-Cocktail; Perkin Elmer) added in the unifilter-96 GF/B plates and kept for 15-20 min. The plates were counted in a Top Count NXT microplate scintillation and luminescence counter (Perkin Elmer). The mean values for [^3H]-hypoxanthine incorporation in parasitized control and non-parasitized control erythrocytes were calculated.
Assay data were analysed using Graph pad prism ver.5 software. A variable sigmoid dose response curve is plotted keeping log concentrations at X-axis and % inhibition at Y-axis.

Assay [2] deals with P. falciparum 3D7 strain. Description: P. falciparum 3D7 growth inhibition, DAPI imaging (HTS screen). In kind it is cell-based. The procedure: The P. falciparum 3D7 strain was used for the primary screen.
For the screening of the chemical library, a validated high throughput screening (HTS) method was used as reported by Duffy and Avery. In brief, intra-erythrocyte P. falciparum 3D7 parasites incubated with the compounds for 72 hours were stained with 4′-6-diamidino-2-phenylindole (DAPI) and imaged using a high throughput confocal imaging system. To ascertain inhibition of parasite growth, images of fluorescent parasites were translated, using a mathematical algorithm, into a numerical output of classified spots (parasites) as determined by fluorescence size and intensity.
EC50 and CC50 values were calculated for compounds which presented an Emax plateau using GraphPad Prism.

[3] abbreviates: NF54, heading bounds of Figure 8: not reconfirming / reconfirming / newly synthesized compounds, read-out: EC50 (bound in Figure 8).
Setting [4] is: P. falciparum NF54 strain, 3H-hypoxanthine incorporation, newly synthesized sample, read-out: EC50 (NF54).
Setting [5] is: negative logarithm of the molar EC50, NF54, read-out: pEC50 (NF54) (converted).
Setting [6] is: Plasmodium falciparum; P. falciparum 3D7 strain, DAPI imaging, HTS screen, library sample; read-out: EC50 (3D7).
The mark [7] stands for this setting: Plasmodium falciparum; negative logarithm of the molar EC50, 3D7; read-out: pEC50 (3D7) (converted).
The mark [8] stands for this setting: 3D7 / NF54, range over HTS (3D7) and retest after synthesis (NF54), read-out: EC50 range over the two assays.

For the compound `COc1ccc(NC(=O)c2cnn(-c3ccccc3)c2-c2ccccc2)c(OC)c1` [Compound 5, N-(2,4-dimethoxyphenyl)-1,5-diphenyl-1H-pyrazole-4-carboxamide], the EC50 in assay [1] (setting [3]) was more than 1000 nM; in assay [1] (P. falciparum NF54, after synthesis, read-out: EC50 (NF54)), approximately 4000 nM; in assay [1] (setting [4]) it was 3900 nM; in assay [1] (setting [5]), 3980 nM; in assay [2] (setting [6]), 870 nM; in assay [2] (setting [7]) it was 794 nM. Further, the “Comment (activity in words on retest)” value in assay [1] is reported as “Weakly active”.

Regarding `O=C(O)[C@H]1Cc2c([nH]c3ccccc23)[C@@H](c2ccc(Cl)cc2Cl)N1` [Compound 14c], the values for the EC50 in assay [1] (setting [3]), in assay [1] (setting [4]) and in assay [1] (setting [5]) were less than 1000 nM, 4200 nM and 3980 nM, respectively. Besides, the “Comment (activity in words on retest)” value in assay [1] is “weak activity; also recorded: Weakly active”.

For the compound `Cc1c(Cc2c(C)n(Cc3ccccc3C#N)c3ccccc23)c2ccccc2n1Cc1ccccc1C#N` [Compound 2, 2,2'-((3,3'-methylenebis(2-methyl-1H-indole-3,1-diyl))bis(methylene))dibenzonitrile], the EC50 in assay [1] (setting [4]) is 763 nM; in assay [1] (setting [5]), 794 nM. The “Comment (activity in words on retest)” value in assay [1] is “EC50 in the same range as initially described during the HTS”.

As to `O=C(O)C1Cc2c([nH]c3ccccc23)C(c2ccc(Cl)cc2Cl)N1` (stereo not drawn) [Compound 14], the EC50 in assay [2] (setting [6]) is 350 nM; in assay [2] (setting [7]), 316 nM.

`O=C(c1cccc(-c2noc(CN(CCN3CCCCC3)C(=O)c3ccccc3)n2)c1)N1CCCNCC1` [Compound 10, N-((3-(3-(1,4-diazepane-1-carbonyl)phenyl)-1,2,4-oxadiazol-5-yl)methyl)-N-(2-(piperidin-1-yl)ethyl)benzamide]: the EC50 is 60 to 181 nM in assay [1] (setting [8]); less than 1000 nM in assay [1] (setting [3]); 60 nM in assay [1] (setting [4]); 63.1 nM in assay [1] (setting [5]); 181 nM in assay [2] (setting [6]); 200 nM in assay [2] (setting [7]). In assay [1], the “Comment (activity in words on retest)” value is “Validated hit”.

Turning to `O=C(O)[C@H]1Cc2c([nH]c3ccccc23)[C@H](c2ccc(Cl)cc2Cl)N1` [Compound 14d], the EC50 was less than 1000 nM in assay [1] (setting [3]), more than 10000 nM in assay [1] (setting [4]) and more than 10000 nM in assay [1] (setting [5]). In addition, in assay [1], the “Comment (activity in words on retest)” value was “Inactive”.

On to `O=C(O)[C@@H]1Cc2c([nH]c3ccccc23)[C@@H](c2ccc(Cl)cc2Cl)N1` [Compound 14b, (1R,3S)-1-(2,4-dichlorophenyl)-2,3,4,9-tetrahydro-1H-pyrido[3,4-b]indole-3-carboxylic acid], for which the values for the EC50 in assay [1] (setting [3]), in assay [1] (setting [4]) and in assay [1] (setting [5]) were less than 1000 nM, 167 nM and 158 nM, respectively. The “Comment (activity in words on retest)” value in assay [1] is “Hit”.

Take `O=C(Nc1cccc(Cl)c1)N1CC2(CCN(Cc3ccccc3)CC2)c2ccccc21` [Compound 17, 1'-benzyl-N-(3-chlorophenyl)spiro[indoline-3,4'-piperidine]-1-carboxamide]: the EC50 in assay [1] (setting [3]) is less than 1000 nM; in assay [1] (setting [4]), 309 nM; in assay [1] (setting [5]) it was 316 nM. The “Comment (activity in words on retest)” value in assay [1] is recorded as “Hit”.

With `O=C(O)[C@@H]1Cc2c([nH]c3ccccc23)[C@H](c2ccc(Cl)cc2Cl)N1` [Compound 14a, (1S,3S)-1-(2,4-dichlorophenyl)-2,3,4,9-tetrahydro-1H-pyrido[3,4-b]indole-3-carboxylic acid], the EC50 in assay [1] (setting [3]) was less than 1000 nM; in assay [1] (setting [4]), more than 10000 nM; in assay [1] (setting [5]), more than 10000 nM. For the same compound, in assay [1], the “Comment (activity in words on retest)” value is reported as “Inactive”.

For `Cc1ccc(S(=O)(=O)N2CC(C)N(Cc3ccc(C(=O)NC4CC4)cc3)CC2C)cc1` (stereo not drawn) [Compound 15, N-cyclopropyl-4-((2,5-dimethyl-4-tosylpiperazin-1-yl)methyl)benzamide], the EC50 in assay [2] (setting [6]) amounted to 678 nM.

Take `Cc1ccc(S(=O)(=O)N2C[C@H](C)N(Cc3ccc(C(=O)NC4CC4)cc3)C[C@@H]2C)cc1` [Compound 15a]: the “Difference in activity between the two enantiomers” value in assay [1] (15a versus 15b, NF54 EC50) is listed as “more than 15 fold”. The EC50 is less than 1000 nM in assay [1] (setting [3]), 44 nM in assay [1] (setting [4]) and 39.8 nM in assay [1] (setting [5]). The “Comment (activity in words on retest)” value in assay [1] is listed as “Hit”.

With `COc1ccc2c(c1)C1(Nc3ccccc3-c3nc4ccccc4n31)C(=O)N2` (stereo not drawn) [Compound 12, 5'-methoxy-5H-spiro[benzo[4,5]imidazo[1,2-c]quinazoline-6,3'-indolin]-2'-one], the EC50 was less than 1000 nM in assay [1] (setting [3]); 60 nM in assay [1] (setting [4]); 63.1 nM in assay [1] (setting [5]); 928 nM in assay [2] (setting [6]); 1000 nM in assay [2] (setting [7]). Moreover, the “Comment (activity in words on retest)” value in assay [1] is “Validated hit, CHEMBL1545915^f)”.

Take `CC(=O)N1c2ccccc2[C@@H](c2ccccc2)[C@@H]1C(=O)O` (racemic) [Compound 4a, Rac (2R,3R)-1-acetyl-3-phenylindoline-2-carboxylic acid]: the EC50 in assay [1] (setting [4]) and in assay [1] (setting [5]) was more than 10000 nM each time. The “Comment (activity in words on retest)” value in assay [1] was “did not confirm activity; also recorded: Inactive”.

In the case of `CC(C)=CCN1CCC2(CC1)CN(C(=O)Nc1cccc(C#N)c1)c1ccc(C)cc12` [Compound 16], the EC50 in assay [2] (Plasmodium falciparum, 3D7; read-out: EC50 (3D7)) was 990 nM; in assay [2] (Plasmodium falciparum, 3D7; read-out: Potency at HTS (3D7)) it was less than 1000 nM; in assay [2] (Plasmodium falciparum, 3D7; read-out: pEC50 (3D7) (converted)), 1000 nM.

On to `Cc1ccc(S(=O)(=O)N2C[C@@H](C)N(Cc3ccc(C(=O)NC4CC4)cc3)C[C@H]2C)cc1` [Compound 15b], for which the values for the EC50 in assay [1] (setting [3]), in assay [1] (setting [4]) and in assay [1] (setting [5]) were less than 1000 nM, 679 nM and 631 nM, respectively. Also, the “Comment (activity in words on retest)” value in assay [1] is listed as “Hit”.

As for `O=C(Nc1cc(=O)[nH]c2nc(-c3ccccc3)nn12)C1CCCCC1` [Compound 7, N-(5-oxo-2-phenyl-4,5-dihydro-[1,2,4]triazolo[1,5-a]pyrimidin-7-yl)cyclohexanecarboxamide], the EC50 was 450 to 648 nM in assay [1] (setting [8]); less than 1000 nM in assay [1] (setting [3]); 450 nM in assay [1] (setting [4]); 501 nM in assay [1] (setting [5]); 648 nM in assay [2] (setting [6]); 631 nM in assay [2] (setting [7]). The “Comment (activity in words on retest)” value in assay [1] is recorded as “Validated hit, CHEMBL587310^f)”.

`CC(=O)N1CCN(Cc2coc(Cc3ccccc3)n2)CC1` [Compound 6, 1-(4-((2-benzyloxazol-4-yl)methyl)piperazin-1-yl)ethanone]: the EC50 in assay [1] (setting [3]) was more than 1000 nM; in assay [1] (setting [4]), more than 10000 nM; in assay [1] (setting [5]) it was more than 10000 nM; in assay [2] (setting [6]), less than 10 nM; in assay [2] (setting [7]), less than 10 nM. Further, in assay [1], the “Comment (activity in words on retest)” value is recorded as “Inactive”.

As to `CC(C)(C)CC(=O)N(Cc1ccc(NC(=O)c2ccc(C#N)cc2)cc1)CC(C)(C)CN` [Compound 3, N-(4-((N-(3-amino-2,2-dimethylpropyl)-3,3-dimethylbutanamido)methyl)phenyl)-4-cyanobenzamide], the EC50 was more than 1000 nM in assay [1] (setting [3]); 3000 nM in assay [1] (setting [4]); 3160 nM in assay [1] (setting [5]); 222 nM in assay [2] (setting [6]); 200 nM in assay [2] (setting [7]). Besides, in assay [1], the “Comment (activity in words on retest)” value is given as “Weakly active”.

With `COc1ccc(-c2cnc3sc(NC4CCC(N)CC4)nn23)cn1` (stereo not drawn) [Compound 8, N1-(5-(6-methoxypyridin-3-yl)imidazo[2,1-b][1,3,4]thiadiazol-2-yl)cyclohexane-1,4-diamine], the EC50 in assay [1] (3D7 / NF54, read-out: EC50 range over the two assays) was 284 to 287 nM; in assay [1] (NF54, read-out: EC50 (NF54)) it was 284 nM; in assay [1] (NF54, read-out: EC50 (bound in Figure 8)), less than 1000 nM; in assay [1] (NF54, read-out: pEC50 (NF54) (converted)), 316 nM; in assay [2] (Plasmodium falciparum, 3D7, read-out: EC50 (3D7)), 297 nM; in assay [2] (Plasmodium falciparum, 3D7, read-out: pEC50 (3D7) (converted)), 316 nM.

Consider `Cc1ccc(S(=O)(=O)N2CCN(Cc3ccc(C(=O)NC4CC4)cc3)CC2)cc1` [Compound 15c, N-cyclopropyl-4-((4-tosylpiperazin-1-yl)methyl)benzamide], for which the EC50 in assay [1] (setting [3]) was less than 1000 nM; in assay [1] (setting [4]), 535 nM; in assay [1] (setting [5]), 501 nM. In addition, the “Comment (activity in words on retest)” value in assay [1] is reported as “Hit”.

The values above are taken from PMC4094919, “Screening and hit evaluation of a chemical library against blood-stage Plasmodium falciparum” (Malaria Journal, 2014).
